Results taken from patent publication US8114901B2, “Crystalline 2,5-dione-3-(1-methyl-1H-indol-3-yl)-4-[1-(pyridin-2-ylmethyl)piperidin-4-yl]-1H-indol-3-yl]-1H-pyrrole mono-hydrochloride” (Eli Lilly and Company, priority 2002, dated 2012).
“And” between values parts separate entries of the source, which are not always exact repeats. Equal values may be shown once. Read-outs that look alike come from different tables or passages of the source.

Legend:
[1] = Hygroscopicity / moisture sorption (weight gain vs RH); type: physicochemical
Text: The different water contents prompted an investigation into the moisture sorption characteristics of those lots of crystalline FB-HCl that were not anhydrous. […] Crystalline FB-HCl material capable of water sorption is hereafter referred to as “hygroscopic F-I”.

[2] = Plasma pharmacokinetics after single oral gavage, cross-over design; type: in vivo; conditions: fed female beagle dogs; for AUC0-24 / AUC0-inf / Cmax: single oral 5 mg/kg by gavage, individual animals 1-6, 5 mg/kg
Experimental: The 6 dogs were randomized into two treatment groups to receive single doses of FB Form I followed by a single dose of F-I two weeks later, or vice versa. On Days 1 and 14, 3 dogs received FB Form 1 and 3 dogs received F-I, and blood samples were collected at 0.5, 1, 2, 3, 4, 8, 12 and 24 hours post dosing. Concentrations of FB Form I were determined by liquid chromatography tandem mass spectrometry.

[3] = tested on: VEGF-stimulated proliferation of HUVEC cells; assay: VEGF-stimulated proliferation of HUVEC cells in culture; type: cell-based; conditions: 72 hours of exposure
Text: (§1) The salt of the present invention is an inhibitor of vascular endothelial growth factor (VEGF)-induced angiogenesis. […] These assay systems are more fully described in WO 02/02116. The salt of the present invention is, thus, effective in treating cancer and inhibiting tumor growth.

[4] = tested on: VEGF-induced neo-angiogenesis; assay: VEGF-induced neo-angiogenesis in the rat corneal micropocket; type: in vivo; conditions: administered orally for 10 days
Text: as §1

[5] = Equilibrium solubility in aqueous media at ambient temperature, HPLC after 24 hours; type: physicochemical; conditions: for Amt Dissolved: 24 hours equilibration
Experimental: Extensive equilibrium solubility determinations were undertaken for both hygroscopic and anhydrous F-I in a variety of aqueous media at ambient temperature. Additionally, the equilibrium solubility of FB Form I was measured at ambient temperature.

[6] = Intrinsic dissolution of 100 mg compact; type: physicochemical; conditions: for % of 100 mg Compact Dissolved in 10 Minutes: Dissolution Medium 0.1 N HCl
Experimental: To confirm that variability in the hygroscopicity of F-I lots should not adversely impact bioavailability, intrinsic dissolution rates were also measured for the hygroscopic and anhydrous F-I. For comparison purposes, the intrinsic dissolution rate of FB Form I was also measured.

[7] = 0.01 N HCl, ambient temperature
[8] = SIF, fed pH 5.0, ambient temperature
[9] = pH 2.2 buffer, ambient temperature

Compound	hygroscopicity [1]	Filtrate pH ([5]; 0.01 N HCl)	Amt Dissolved [5, 7]	Filtrate pH ([5]; SIF, fed pH 5.0)	Amt Dissolved [5, 8]	Filtrate pH ([5]; pH 2.2 buffer)	Amt Dissolved [5, 9]	dissolution of a 100 mg compact within 10 minutes [6]	% of 100 mg Compact Dissolved in 10 Minutes [6]	further results
Cl.Cn1cc(C2=C(c3cn(C4CCN(Cc5ccccn5)CC4)c4ccccc34)C(=O)NC2=O)c2ccccc21 [F-I]	not significantly hygroscopic	–	–	–	–	–	–	–	–	weight gain ([1]; at 95% RH): < 2%; hygroscopicity ([1]; between 0-70% RH): relatively non-hygroscopic; plasma exposure (AUC 0 to 24 hr and 0 to infinity) compared with FB Form I ([2]; single oral 5 mg/kg): significantly higher; AUC0-24 ([2]; mono-hydrochloride): 3.5923 µM·h and 1.735 µM·h and 2.97 µM·h and 4.0644 µM·h and 6.1501 µM·h and 2.9445 µM·h; AUC0-inf ([2]; mono-hydrochloride): 3.8286 µM·h and 1.7984 µM·h and 3.0161 µM·h and 4.2008 µM·h and 6.6308 µM·h and 2.9983 µM·h; Cmax ([2]; mono-hydrochloride): 481 nM and 327 nM and 679 nM and 501 nM and 774 nM and 450 nM; inhibition of VEGF-stimulated proliferation of HUVEC cells [3]: potent inhibitor; inhibition of VEGF-induced neo-angiogenesis in the rat corneal micropocket [4]: highly effective inhibitor
Cn1cc(C2=C(c3cn(C4CCN(Cc5ccccn5)CC4)c4ccccc34)C(=O)NC2=O)c2ccccc21 [FB Form I]	–	2.20	0.279 mg/mL and 0.355 mg/mL	4.94	0.073 mg/mL and 0.074 mg/mL	2.21	0.346 mg/mL and 0.336 mg/mL	> 10%	>30%	AUC0-24 [2]: 2.4431 µM·h and 0.3893 µM·h and 2.0924 µM·h and 3.4775 µM·h and 5.1195 µM·h and 2.2702 µM·h; AUC0-inf [2]: 2.5786 µM·h and 0.4006 µM·h and 2.1139 µM·h and 3.6031 µM·h and 5.3331 µM·h and 2.3063 µM·h; Cmax [2]: 336 nM and 99.8 nM and 532 nM and 600 nM and 552 nM and 718 nM
Cl.Cn1cc(C2=C(C3CCN(Cc4ccccn4)CC3)C(=O)NC2=O)c2ccccc21 [Hygroscopic F-I]	–	2.25	0.046 mg/mL and 0.053 mg/mL	4.93	0.014 mg/mL and 0.015 mg/mL	2.26	0.324 mg/mL and 0.352 mg/mL	no appreciable dissolution	<<0.5%	maximum moisture sorption ([1]; at 40% RH): 1.6%
tartrate	only slightly hygroscopic	–	–	–	–	–	–	–	–	weight gain ([1]; at RH's up to 70%): ~1%
